Data from patent US9757408B2 (Hayashibara Co., Ltd., priority 2010, dated 2017).
Marks after values point to notes of the source that are not given here.

How the values were obtained:
[1] = system: IL-4 production of spleen cells; assay: IL-4 production of spleen cells stimulated with anti-CD3 antibody, from gel-treated mice (Experiment 16); assay type: in vivo, NC/Nga mice; conditions: for production level of IL-4 of spleen cells stimulated with the anti-CD3 antibody: compared to mice applied with gel prepared by adding refined water (Experiment group 1); for Content of IL-4: supernatant of spleen cells stimulated with anti-CD3 antibody
Experimental: (§1) On Friday of the 6th week of the induction (46th day after initiating the application), all the mice were sacrificed, followed by isolating their spleens and collecting spleen cells in usual manner. […] To each well 2 μg/mL of “Purified Mouse CD3ε Monoclonal Antibody”, a product name of an anti-CD3 antibody, commercialized by Cosmo Bio Co., Ltd., Tokyo, Japan, was added, and the cells were incubated at 37° C. for three days in a 5% v/v CO2 incubator, followed by assaying the levels of cytokines in each supernatant thereof.
(§2) The results are in Table 19 in parallel.

[2] = system: PGE2 production from mouse intraperitoneal macrophages; assay: IC50 for PGE2 production from mouse macrophages, LPS + IFN-γ (Experiment 19); assay type: cell-based; conditions: for IC50: Mus musculus, Macrophage, 20 h, read-out: IC50 Concentration PGE2
Source text: (§3) After completion of the culture, the supernatant in each well was collected and assayed for cytokines and prostaglandin E2 (called “PGE2”, hereinafter) with ELISA.

[3] = system: IL-8 production from NHEK cells; assay: IL-8 production from NHEK cells irradiated with ultraviolet B (Experiment 17); assay type: cell-based, human; conditions: for IL-8: NHEK cells, stimulation by ultraviolet rays; for production of IL-8 from NHEK cells induced by ultraviolet rays: UVB 40 mJ/cm^2, supernatant at six hours
Experimental: (§4) “CELLMATRIX TYPE IV”, a product name of collagen for tissue culture commercialized by Nitta Gelatin Inc., Osaka, Japan, which had been diluted with PBS(K-) by 10 times, was previously placed in “FALCON 35-3001”, a product name of 35 mm petri dish commercialized by Becton Dickinson and Company, NJ, USA, in an amount of 1 mL/plate, and then allowed to stand at ambient temperature for 10 min, followed by removing an excessive amount of CELLMATRIX, drying the petri dish in air, and washing it thrice with PBS(K-). […] The cells were cultured at 37° C. in a 5% v/v CO2 incubator. On the 2nd and 4th days after the cell inoculation, the medium was replaced with EpiLife medium free of EDGS (1 mL/plate). On the 5th day after the cell inoculation, the supernatant was removed, and the petri dish was washed twice by adding 1 mL/petri dish of Hanks' balanced salt solution (called “HBSS (−) buffer”, hereinafter). Further, 2 mL/petri dish of HBSS (−) buffer was added to the petri dish which was then placed in the position 15 cm apart from an ultraviolet ray light source and irradiated with 40 mJ/cm^2 of ultraviolet B radiation. […] As an ultraviolet ray light source, “NS-8F”, a light source for actual use commercialized by Sanwa Medical Co., Ltd., Okayama, Japan, equipped with an ultraviolet B radiation lamp was used, and the radiation dose was measured on “UVR-305/365D (II)”, an ultraviolet ray meter commercialized by Topcon Corporation, Tokyo, Japan. TNF-α was assayed by the same method as in Experiment 2. The remaining other cytokines were assayed with an IL-1α assay kit, commercialized by R & D Systems Inc., MN, USA, and an IL-8 assay kit commercialized by BioLegend, CA, USA.

NHEK cells = assay: Proliferation of NHEK cells irradiated with ultraviolet rays, fluorescent intensity (Experiment 17); assay type: cell-based, human; conditions: stimulation by ultraviolet rays
Experimental: as §4

[4] = system: IFN-γ production of spleen cells; assay: IFN-γ production of spleen cells stimulated with anti-CD3 antibody, from gel-treated mice (Experiment 16); assay type: in vivo, NC/Nga mice; conditions: for production level of IFN-γ of spleen cells stimulated with the anti-CD3 antibody: compared to mice applied with gel prepared by adding refined water (Experiment group 1); for Content of IFN-γ: supernatant of spleen cells stimulated with anti-CD3 antibody, picryl chloride-sensitized mice applied with gel
Experimental: as §1, §2

[5] = system: IL-6 production from mouse intraperitoneal macrophages; assay: IC50 for IL-6 production from mouse macrophages, LPS + IFN-γ (Experiment 19); assay type: cell-based; conditions: for IC50: Mus musculus, Macrophage, 20 h, read-out: IC50 Concentration IL-6
Source text: as §3

[6] = system: IL-6 production of spleen cells; assay: IL-6 production of spleen cells stimulated with anti-CD3 antibody, from gel-treated mice (Experiment 16); assay type: in vivo, NC/Nga mice; conditions: for production level of IL-6 of spleen cells stimulated with the anti-CD3 antibody: compared to mice applied with gel prepared by adding refined water (Experiment group 1); for Content of IL-6: supernatant of spleen cells stimulated with anti-CD3 antibody, picryl chloride-sensitized mice applied with gel
Experimental: as §1, §2

[7] = system: TNF-α production from mouse intraperitoneal macrophages; assay: IC50 for TNF-α production from mouse macrophages, LPS + IFN-γ, nucleic acid derivatives (Experiment 19); assay type: cell-based; conditions: for IC50: Mus musculus, Macrophage, 20 h, read-out: IC50 Concentration TNF-α
Source text: as §3

[8] = system: picryl chloride-sensitized mice; assay: Picryl chloride-sensitized mice atopic dermatitis, skin score (Experiment 16); assay type: in vivo, NC/Nga mice; conditions: for Skin score, 21 days after the day of sensitizing with picryl chloride: gel on dorsal skin twice a day (ANO 14 mg/mL, AN or IN 13 mg/mL, prednisolone 6.7 mg/mL from 3rd induction week), day 21; for Skin score, 24 days after the day of sensitizing with picryl chloride / Skin score, 28 days after the day of sensitizing with picryl chloride / Skin score, 31 days after the day of sensitizing with picryl chloride / Skin score, 35 days after the day of sensitizing with picryl chloride / Skin score, 39 days after the day of sensitizing with picryl chloride / Skin score, 42 days after the day of sensitizing with picryl chloride / Skin score, 45 days after the day of sensitizing with picryl chloride: gel on dorsal skin twice a day (ANO 14 mg/mL, AN or IN 13 mg/mL, prednisolone 6.7 mg/mL); for Skin score, 24 days after the day of sensitizing with picryl chloride: day 24; for Skin score, 28 days after the day of sensitizing with picryl chloride: day 28; for Skin score, 31 days after the day of sensitizing with picryl chloride: day 31; for Skin score, 35 days after the day of sensitizing with picryl chloride: day 35; for Skin score, 39 days after the day of sensitizing with picryl chloride: day 39; for Skin score, 42 days after the day of sensitizing with picryl chloride: day 42; for Skin score, 45 days after the day of sensitizing with picryl chloride: day 45
Source text: as §2

[9] = system: mice with bacterial shock induced by LPS; assay: LPS bacterial shock mice, survival, ANO, adenosine or inosine i.v. (Experiment 9); assay type: in vivo, BALB/c mice; conditions: LPS 18 mg/kg i.p.
Experimental: An LPS specimen derived from E. coli (055:B5), commercialized by Sigma-Aldrich Corporation, St. Louis, Mo. USA, was dissolved in PBS and intraperitoneally administered to all the seven mice in the four groups at a dose of 18 mg/kg body weight. […] Seven mice in the remaining one group were intravenously administered with PBS as a control in a volume of 0.2 mL/head (Experiment group 1). For each group, the survival number of mice was confirmed up to 7 to 43 hours after administering LPS and the survival rate (%) of mice in each group was determined.

[10] = picryl chloride-sensitized mice applied with gel
[11] = mouse intraperitoneal macrophages stimulated with LPS and IFN-γ

Compound	production level of IL-4 of spleen cells stimulated with the anti-CD3 antibody [1]	Content of IL-4 [1, 10]	IC50 [2]	IL-8 ([3]; 1 μM)	IL-8 ([3]; 5 μM)	IL-8 ([3]; 10 μM)	production of IL-8 from NHEK cells induced by ultraviolet rays [3]	Proliferation (NHEK cells; 1 μM)	Proliferation (NHEK cells; 5 μM)	Proliferation (NHEK cells; 10 μM)	production level of IFN-γ of spleen cells stimulated with the anti-CD3 antibody [4]	Content of IFN-γ [4]	IC50 [5]	production level of IL-6 of spleen cells stimulated with the anti-CD3 antibody [6]	Content of IL-6 [6]	IC50 [7]	Skin score, 21 days after the day of sensitizing with picryl chloride [8]	Skin score, 24 days after the day of sensitizing with picryl chloride [8]	Skin score, 28 days after the day of sensitizing with picryl chloride [8]	Skin score, 31 days after the day of sensitizing with picryl chloride [8]	other results
Nc1ncnc2c1ncn2[C@@H]1O[C@H](CO)[C@@H](O)[C@H]1O [AN, adenosine]	showed no difference	9.8 ng/mL	> 200000 nM	177 pg/mL	172 pg/mL	175 pg/mL	did not influence	5701 Fluorescent intensity	5683 Fluorescent intensity	5578 Fluorescent intensity	showed no difference	12.1 pg/mL	50100 nM	showed no difference	192 ng/mL	17400 nM	0.50	0.50	2.75	3.55	inhibitory action on the production of inflammatory cytokines (in words) [7, 11]: only a weak inhibitory action; Skin score, 35 days after the day of sensitizing with picryl chloride [8]: 5.56; Skin score, 39 days after the day of sensitizing with picryl chloride [8]: 5.78; Skin score, 42 days after the day of sensitizing with picryl chloride [8]: 6.22; Skin score, 45 days after the day of sensitizing with picryl chloride [8]: 5.50; Survival rate (%) of mice, 7 Hours ([9]; 127 mg/kg i.v. simultaneously): 100%; Survival rate (%) of mice, 19 Hours ([9]; 127 mg/kg i.v. simultaneously): 20%; Survival rate (%) of mice, 26 Hours ([9]; 127 mg/kg i.v. simultaneously): 0%; Survival rate (%) of mice, 43 Hours ([9]; 127 mg/kg i.v. simultaneously): 0%
Nc1c2ncn([C@@H]3O[C@H](CO)[C@@H](O)[C@H]3O)c2nc[n+]1[O-] [ANO, adenosine N1-oxide]	significantly lower	2.8* ng/mL	1200 nM	107 pg/mL	89 pg/mL	51 pg/mL	inhibited	5540 Fluorescent intensity	5607 Fluorescent intensity	5682 Fluorescent intensity	significantly lower	8.75* pg/mL	900 nM	significantly lower	129* ng/mL	300 nM	0.75	1.00	2.25	3.38	production ratio of IL-4/IFN-γ of spleen cells stimulated with the anti-CD3 antibody ([1]; spleen cells of gel-treated mice): close to that of the mice of the normal group; Ratio of IL-4/IFN-γ ([1]; spleen cells stimulated with anti-CD3 antibody, picryl chloride-sensitized mice applied with gel): 0.32; inhibitory action on the production of PGE2 (in words) [2, 11]: showed an inhibitory action; inhibition of the production of IL-6 (in words) [5, 11]: strongly inhibited; Skin score, 35 days after the day of sensitizing with picryl chloride [8]: 4.50; Skin score, 39 days after the day of sensitizing with picryl chloride [8]: 3.58*; Skin score, 42 days after the day of sensitizing with picryl chloride [8]: 4.38*; Skin score, 45 days after the day of sensitizing with picryl chloride [8]: 3.63*; recovery of skin wounds in the inflammation-induced part ([8]; picryl chloride-sensitized NC/Nga mice, gel application): cure/improvement of wounds induced by inflammation was observed; Survival rate (%) of mice, 7 Hours ([9]; 135 mg/kg i.v. simultaneously): 100%; Survival rate (%) of mice, 19 Hours ([9]; 135 mg/kg i.v. simultaneously): 80%; Survival rate (%) of mice, 26 Hours ([9]; 135 mg/kg i.v. simultaneously): 80%; Survival rate (%) of mice, 43 Hours ([9]; 135 mg/kg i.v. simultaneously): 80%
